Where two headings read alike, the source gives them in different places.
Columns and labels:
[1] = Unbound fraction in brain (fu,brain), brain homogenate method; conditions: Kb from literature fu,brain
Excerpt: However, Kp,uu,brain can be derived from Kp,brain by combining the unbound fraction of the drug in the plasma (fu,p) and in the brain (fu,brain) or the unbound brain volume of distribution, Vu,brain [7]. […] The relevant equations are included in Section 3. Evidently, fu,p is obtained by standard methods for plasma protein binding.
Experimentally determined Kp,brain values for 42 compounds were obtained from the literature and were converted to logBB. They preferably referred to rat studies in order to achieve homogeneity in the data. Experimental fu,brain values were available from the literature for 39 compounds in the dataset. When more than one value was available, the average was calculated. Most values were determined on rats.
The decimal logarithm of Kb, logKb, was used for the development of the models.

[2] = brain slice method; cited from earlier work
[3] = parameters: method as in ref 23, 24, 27, 29, 45 (a number printed in a supplementary file, which may have a reference list of its own: not looked up in the article's list); conditions: 100% aqueous mobile phase, previously obtained in authors' laboratory, cited from earlier work
[4] = most values in rats, average if more than one value; cited from earlier work
human serum albumin = system: human serum albumin; parameters: method as in ref 45 (a number printed in a supplementary file, which may have a reference list of its own: not looked up in the article's list); conditions: pH=7.4, isocratic, 10% acetonitrile; available for 37 compounds, remaining calculated by equation; cited from earlier work
[5] = experimental, cited from earlier work; for logP: octanol-water partition coefficient
[6] = cited from earlier work
[7] = rat brain tissue; cited from earlier work

Row | Compound | logKb exper. [1] | Vu,brain [2] [mL/g brain] | logkw IAM ([3]; pH=7.4, PBS) | fu,brain [4] | logk10,HSA (human serum albumin) | logP [5] | logD ([5]; pH=5.0, octanol-water) | logD ([5]; pH=7.4, octanol-water) | logkw IAM ([3]; pH=5.0, PBS) | logBB exper. ([6]; literature Kp,brain converted to logBB) | Kp,brain ([6]; total brain/total plasma, preferably rat studies) | Kp,uu,brain [7]
1 | CN(C)C(=N)N=C(N)N [Metformin] | 1.270 | 10.00 | -0.37 | – | – | – | – | – | – | – | – | –
2 | CN(C)C(=O)Oc1cccc([N+](C)(C)C)c1 [Neostigmine] | 1.270 | 3.20 | 0.37 | 0.950 | -1.91 | -2.16 | -2.16 | -2.16 | -0.08 | – | – | –
3 | CCn1cc(C(=O)O)c(=O)c2cc(F)c(N3CCNCC3)cc21 [Norfloxacin] | 0.139 | 2.90 | – | 0.580 | -0.92 | -1.03 | -1.17 | -1.03 | – | -1.15 | 0.07 | 0.05
4 | O=C(O)c1ccccc1O [Salicylic acid] | 0.230 | 1.00 | -0.08 | 0.630 | – | – | – | – | 0.46 | – | – | –

Source: paper PMC9227077, “Prediction Models for Brain Distribution of Drugs Based on Biomimetic Chromatographic Data” (Molecules, 2022)
